# Assay results from US7872115B2, “Reporter assay screens for protein targets in Saccharomyces cerevisiae” (Schering Corporation, priority 2004, dated 2011).
# Like-named read-outs stand apart in the source and are kept apart here.
# Tests used:
# [1] = tested on: yeast Y229-1 (PCDC48 (SEQ ID NO: 53)-PH05-Renlla Luciferase); assay: IC90 calculated from Renilla luciferase light output (baseline promoter reporter); format: cell-based, Saccharomyces cerevisiae; conditions: 24 hours at 30° C., YPD, 1% DMSO
# [2] = tested on: yeast Y229-1 (PCDC48 (SEQ ID NO: 53)-PH05-Renlla Luciferase); assay: MIC determined visually; format: cell-based, Saccharomyces cerevisiae; conditions: minimum inhibitor concentration at which there is an approximately 90% drop in cell number relative to the uninhibited control
# [3] = Saccharomyces cerevisiae, inhibitor concentration at which there is a 90% drop in luciferase signal relative to the uninhibited control, read-out: IC90
# [4] = Saccharomyces cerevisiae, read-out: MIC
compound,measurement,setting,value
"Nc1nc(=O)[nH]cc1F [5FC, 5-fluorocytosine]",IC90,[1]; [3],1.9 µg/mL
same,MIC,[2]; [4],2.5 µg/mL
"C[C@@H]1[C@H](O)[C@@H](C)/C=C/C=C/C=C/C=C/C=C/C=C/C=C/[C@H](O[C@@H]2O[C@H](C)[C@@H](O)[C@H](N)[C@@H]2O)C[C@@H]2O[C@](O)(C[C@@H](O)C[C@@H](O)[C@H](O)CC[C@@H](O)C[C@@H](O)CC(=O)O[C@H]1C)C[C@H](O)[C@H]2C(=O)O [AMB, amphotericin B]",IC90,[1]; inhibitor concentration at which there is a 90% drop in luciferase signal relative to the uninhibited control,0.3 µg/mL
same,MIC,[2],0.3 µg/mL
"CC[C@H](C)C[C@H](C)CCCCCCCCC(=O)N[C@H]1C[C@@H](O)[C@@H](NCCN)NC(=O)[C@@H]2[C@@H](O)CCN2C(=O)[C@H]([C@H](O)CCN)NC(=O)[C@H]([C@H](O)[C@@H](O)c2ccc(O)cc2)NC(=O)[C@@H]2C[C@@H](O)CN2C(=O)[C@H]([C@@H](C)O)NC1=O [CSP, caspofungin]",IC90,"[1]; Saccharomyces cerevisiae, […], read-out: IC90",0.02 µg/mL
same,MIC,[2]; [4],0.015 µg/mL
"OC(Cn1cncn1)(Cn1cncn1)c1ccc(F)cc1F [FLU, fluconazole]",IC90,[1]; [3],0.3 µg/mL
same,MIC,[2]; [4],0.2 µg/mL
"CN(C/C=C/C#CC(C)(C)C)Cc1cccc2ccccc12 [TRB, terbinafine]",IC90,[1]; [3],1.4 µg/mL
same,MIC,[2]; [4],1.56 µg/mL
"C[C@@H](c1ncncc1F)[C@](O)(Cn1cncn1)c1ccc(F)cc1F [VOR, voriconazole]",IC90,[1]; [3],0.008 µg/mL
same,MIC,[2]; [4],0.015 µg/mL
